These results are taken from patent publication US20100280987A1, “METHODS AND GENE EXPRESSION SIGNATURE FOR ASSESSING RAS PATHWAY ACTIVITY” (priority 2009, published 2010).

Structures are written as SMILES. Entries after “also recorded” stand apart in the source; their conditions may differ.

In one series the test system is MEK1 and MEK2. The conditions noted are these: purified enzyme, read-out: in vitro IC50 against purified enzyme; cited from earlier work.
Series [1] in a line: blood concentration of AZD6244 post-dose in mice. It is filed as in vivo, CD-1 nude mice.
Series [2] has as its system p53 loss of function and KRas mutant lung tumors (7450 KP-model). As to the kind of experiment: tumor progression in 7450 KP-model mice. It is filed as in vivo. The conditions noted are these: 7450 KP mice, after 4 weeks of treatment (data not shown).
In a further series the test system is RAS pathway signature. The experiment in a line: RAS pathway signature score in tumors after treatment in vivo. The note with it: 7450 KP-model mice, 150 mpk, three doses 10 hours apart, tumors 4 hours post last dose; 150 mg/kg. The method, then:
As a first step in the analysis of the RAS signatures, we assessed the coherency of the signatures across four cell line panels from lung, colon, breast, and lymphoid malignancies. The purpose of coherence analysis is to show the statistical significance of the difference between the “Up” and “Down” arms of the signature in a new dataset. Two correlation coefficients were calculated for all of the genes in both the Up and Down arms. First, the correlation between each gene in the Up arm and the average of all genes in the Up arm is calculated. Second, the anticorrelation between each gene in the Up arm and the average of all genes in the Down arm is calculated. This is repeated for genes in the Down arm. […] A Fisher exact test is calculated for correlation within and between arms of the signature to assess the significance of signature coherence in a new dataset. […] RAS pathway activity (or regulation) is summarized into a RAS signature score, which is calculated as: (mean expression of Up genes (Table 2a))—(mean expression of Down genes (Table 2b)). […]
The 7450 KP mice were treated with a small molecule MEK inhibitor, AZD6244 (Ohren et al., 2004, Nat. Struct. Mol. Biol. 11:119201197). […] RAS signature pathway signatures scores were calculated as previously described for each time point and plotted (FIG. 18).

`Cn1cnc2c(F)c(Nc3ccc(Br)cc3Cl)c(C(=O)NOCCO)cc21` [AZD6244]: in the series with MEK1 and MEK2, the IC50 is 10 to 14 nM. Moreover, in series [1] (CD-1 nude mice), the clearance post-dose entry is reported as “cleared quickly”. In addition, the half-life in vivo result in series [1] (in vivo) is “short half-life”. In addition, the “blood concentration after the peak” value in series [1] (mice (CD-1 nude mice), blood) is “decreased rapidly”. Moreover, the “tumor progression compared vehicle” value in series [2] was “significantly halted tumor progression”. Further, the “RAS pathway signature score in vivo at 4 hours post-dose” value with RAS pathway signature is reported as “down regulated; also recorded: down-regulated”.
